Test results published in patent US9040578B2, “Continuous administration of L-dopa, dopa decarboxylase inhibitors, catechol-O-methyl transferase inhibitors and compositions for same” (Neuroderm, Ltd., priority 2010, dated 2015).
Blank lines part the entries; values can stand above or below the compound they belong to.

Tests used:
[1] = Titration with acetic or lactic acid: pH and physical stability (Table D); type: physicochemical
[2] = cited from earlier work; for Solubility: in words; for pH compatibility: check mark
[3] = Histological score of subcutaneous toxicity after 24 h continuous SC LD/CD; type: in vivo, Pigs; conditions: 0.2% added to LD/CD 5.4/1.5% + 1% ascorbate
[4] = biological target: T1, Tyrosinase (Homo sapiens, UniProt P14679); conditions: tyrosinase inhibitor; cited from earlier work
T1 sequence (P14679 19-529): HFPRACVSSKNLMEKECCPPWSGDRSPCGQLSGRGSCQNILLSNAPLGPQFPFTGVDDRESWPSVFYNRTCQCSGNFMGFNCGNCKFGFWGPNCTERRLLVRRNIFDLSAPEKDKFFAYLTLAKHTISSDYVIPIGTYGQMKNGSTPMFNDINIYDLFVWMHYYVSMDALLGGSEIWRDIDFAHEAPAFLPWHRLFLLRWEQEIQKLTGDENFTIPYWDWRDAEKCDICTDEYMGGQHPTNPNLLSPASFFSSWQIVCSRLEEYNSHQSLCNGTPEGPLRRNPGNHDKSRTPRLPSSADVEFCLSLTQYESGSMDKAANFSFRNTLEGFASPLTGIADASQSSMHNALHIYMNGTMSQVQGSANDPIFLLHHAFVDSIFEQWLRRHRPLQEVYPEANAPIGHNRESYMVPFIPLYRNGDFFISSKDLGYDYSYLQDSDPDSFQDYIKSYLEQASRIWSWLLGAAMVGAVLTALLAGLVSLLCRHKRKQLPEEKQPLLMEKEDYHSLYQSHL

[5] = Stability of carbidopa formulations with levodopa (Table H); type: physicochemical
Source text: The effect of levodopa on the stability of carbidopa was investigated. Table H indicates results.

[6] = Chemical stability of levodopa formulations with carbidopa (Tables F, G); type: physicochemical; conditions: Table F
Protocol: The effect of carbidopa on levodopa formulations was investigated. Levodopa (LD) formulations were prepared with 0, 0.5, 1, 1.5 & 2% by weight carbidopa (CD) and a constant concentration of arginine.
In an additional experiment, LD formulations were prepared with 0, 0.5, 1 & 2% CD and respective concentrations of arginine.

[7] = Colour formation of levodopa/arginine solutions in vitro (FIG. 1A); type: physicochemical
Protocol: FIG. 1 depicts the effect of carbidopa on the stability of levodopa In Vitro and Ex Vivo: A. 6% weight levodopa and arginine solution with various concentrations (2, 1.5, 1, 0.5%) of carbidopa or no carbidopa were tested for physical stability in vitro. […] B. 7% weight percent levodopa and arginine solution, with or without 2% carbidopa by weight, continuously administered in to the subcutaneous tissue of a 5×5 cm fresh, full-thickness pig skin.
In the absence of air (with N2 in the head space) 0.5% CD was sufficient to inhibit this color formation.

reduction of pH as compared to Na-ascorbate [1]: 0.1-0.15 units
Structure (SMILES): O=C1O[C@H]([C@@H](O)CO)C(O)=C1O [Ascorbic acid]

Structure (SMILES): C[C@H](CS)C(=O)N1CCC[C@H]1C(=O)O [Captopril]
Solubility [2]: Soluble
protection from local toxicity compared to 1% ascorbate alone [3]: did not have a supplementary effect
Min required concentration [4]: 0.04 mg/mL

Structure (SMILES): O=C(O)[C@@H](S)[C@@H](S)C(=O)O [DMSA (succimer)]
Solubility [2]: Soluble

Structure (SMILES): CC(C)(S)[C@@H](N)C(=O)O [DPA (D-penicillamine), D-penicillamine]
Solubility [2]: Soluble

Structure (SMILES): O=C([O-])CN(CCN(CC(=O)[O-])CC(=O)[O-])CC(=O)[O-].[Ca+2].[Na+].[Na+] [EDTA calcium disodium]
pH compatibility [2]: √
protection from local toxicity compared to 1% ascorbate alone [3]: did not have a supplementary effect

Structure (SMILES): O=C([O-])CN(CCN(CC(=O)[O-])CC(=O)O)CC(=O)O.[Na+].[Na+] [EDTA disodium]
pH compatibility [2]: √

Structure (SMILES): N[C@@H](CS)C(=O)O [L-Cysteine]
Solubility [2]: Soluble

Structure (SMILES): Cn1cc[nH]c1=S [Methimazole]
Solubility [2]: Soluble

Structure (SMILES): C[C@@](Cc1ccc(O)c(O)c1)(NN)C(=O)O [carbidopa]
sensitivity of CD to oxidation and degradation [5]: more stable in the presence of LD
effect on the chemical stability of levodopa [6]: does not have a significant effect
dark yellow color formation ([7]; 6% levodopa/arginine solution, in the presence of air, dose related): prevented dark yellow color formation
carbidopa concentration sufficient to inhibit color formation ([7]; absence of air (N2 in the head space)): 0.5%
